Assay results as given in ChEMBL document CHEMBL1127716, “-Ketothiazole inhibitors of prolyl endopeptidase” (Bioorg Med Chem Lett, 1994).

Biological target: Prolyl endopeptidase (Sus scrofa, UniProt P23687)
Experiment: Compound was evaluated for the inhibition of Prolyl endopeptidase (PEP) from pig kidney using Z-Gly-Pro-p-nitroanilide as substrate

Chain of Prolyl endopeptidase (P23687 whole entry): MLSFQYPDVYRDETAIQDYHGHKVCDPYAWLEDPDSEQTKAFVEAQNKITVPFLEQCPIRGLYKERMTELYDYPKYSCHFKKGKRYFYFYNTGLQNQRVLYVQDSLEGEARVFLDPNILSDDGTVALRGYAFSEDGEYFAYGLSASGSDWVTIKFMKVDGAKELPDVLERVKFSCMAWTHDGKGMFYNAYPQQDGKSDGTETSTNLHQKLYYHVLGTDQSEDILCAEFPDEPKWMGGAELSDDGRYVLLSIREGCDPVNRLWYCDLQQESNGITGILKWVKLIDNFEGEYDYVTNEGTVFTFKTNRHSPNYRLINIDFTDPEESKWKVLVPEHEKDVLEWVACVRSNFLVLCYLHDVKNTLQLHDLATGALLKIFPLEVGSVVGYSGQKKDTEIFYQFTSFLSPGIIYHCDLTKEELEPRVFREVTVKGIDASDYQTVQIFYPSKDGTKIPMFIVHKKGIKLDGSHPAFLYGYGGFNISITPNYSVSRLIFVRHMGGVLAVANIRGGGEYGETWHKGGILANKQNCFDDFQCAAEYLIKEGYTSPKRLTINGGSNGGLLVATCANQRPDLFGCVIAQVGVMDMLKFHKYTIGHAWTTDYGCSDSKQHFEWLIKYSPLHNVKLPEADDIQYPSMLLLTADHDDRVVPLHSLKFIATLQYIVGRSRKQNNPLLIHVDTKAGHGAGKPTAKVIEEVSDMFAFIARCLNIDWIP

Row | IC50 [nM] | SMILES
1 | 9.6 | CCOC(=O)C(=O)[C@@H]1CCCN1C(=O)[C@@H]1CCCN1C(=O)CCCc1ccccc1
2 | 5.9 | O=C(c1cscn1)[C@@H]1CCCN1C(=O)[C@@H]1CCCN1C(=O)CCCc1ccccc1
